Measurements from patent US20130101580A1, “COMPOSITIONS AND METHODS FOR PROLONGING LIFESPAN” (priority 2011, published 2013).
Marks after values point to notes of the source that are not given here.

Experiments:
[1] = test system: Drosophila melanogaster (Oregon); assay: Life span of wild type Oregon-R flies with aMT or 5MT added to the nutrition medium; type: in vivo
[2] = test system: Drosophila melanogaster (Oregon); assay: as above; type: in vivo; settings: for Life span (days), Maximum / Life span (days), Mean / Life span (days), Median: aMT (18.3 mM) and 5MT (18.3 mM) in medium; for Increase of maximum life span / Increase of mean survival time: vs control
Procedure: Wild type Oregon-R flies were maintained at 23° C. on a standard Drosophila medium consisting of sugar, yeast, agar and semolina. Two concentrations of aMT (alpha-dl-methyl tryptophan) (0.46 mM or 18.3 mM) or 5MT (5-methyl-dl-tryptophan) (2.4 mM and 18.mM) (Sigma Aldrich Chemical Co, USA) were added to nutrition medium of experimental groups. To examine lifespan, 1-day old adult flies were collected and then regularly transferred to fresh medium every 3-4 days. The number of dead flies was recorded at the time of transfer.
The data were analyzed using two ways ANOVA and Log rank test.

Row | SMILES | Effect on life span of Drosophila ([1]; 5MT 2.3 mM in medium) | Increase of mean survival time ([1]; female flies, 5MT 34.5 mM, vs control, p<0.0001, two way ANOVA) | Longest survival of treated female flies ([1]; female flies, high concentrations of 5MT (34.5 mM)) | Life span (days), Maximum ([2]; FEMALE flies) | Life span (days), Mean ([2]; FEMALE flies) | Life span (days), Median ([2]; FEMALE flies) | Life span (days), Maximum ([2]; MALE flies) | Life span (days), Mean ([2]; MALE flies) | Life span (days), Median ([2]; MALE flies) | Increase of maximum life span ([2]; female flies, 5MT 34.5 mM, p<0.0001, two way ANOVA) | Female flies surviving longer than 53 days (maximum life span of female control group) ([2]; female flies, high concentrations of 5MT (34.5 mM), 11 out of 58) | Effect on life span of Drosophila ([2]; aMT 0.46 mM in medium) | Increase of maximum life span ([2]; female flies, aMT 18.3 mM, p<0.0001) | Female flies surviving longer than 53 days (maximum life span of female control group) ([2]; female flies, high concentration of aMT (18.3 mM), 13 out of 51) | Increase of mean survival time ([2]; females, aMT 18.3 mM, p<0.0001, two way ANOVA) | Increase of maximum life span ([2]; male flies, aMT 18.3 mM, p<0.0001) | Effect on life span of male flies ([2]; male flies, high concentration (18.3 mM)) | Male flies surviving longer than 40 days (maximum life span of 72 out of 73 control flies) ([2]; male flies, high concentration of aMT (18.3 mM), 29 out of 40) | Increase of mean survival time ([2]; males, aMT 18.3 mM, p<0.0001, two way ANOVA)
1 | Cc1ccc2[nH]cc(CC(N)C(=O)O)c2c1 (racemic) [5MT, 5-methyl-dl-tryptophan] | did not affect | 21% | up to 65 days | 65* days | 48.5* days | 50 days | 40 days | 26.7 days | 30 days | 23% | 19% | – | – | – | – | – | – | – | –
2 | C[C@](N)(Cc1c[nH]c2ccccc12)C(=O)O (racemic) [aMT, alpha-dl-methyl tryptophan] | – | – | – | – | 51.7* days | 50 days | – | 40.2* days | 43* days | – | – | did not affect | 23% | 25% | 27% | 21% | did not affect | 60% | 42%
